From patent publication US20040019121A1, “Protein prenyl transferase inhibitors in the treatment of neuroinflammatory disease” (priority 2000, published 2004)

Experiments:
brain endothelial cells = assay: Adhesion of peripheral lymph node T-lymphocytes to brain endothelia; type: cell-based, rat; conditions: 10 μM
Experimental: (§1) The immortalised Lewis rat brain endothelial cell line GP8/3.9 (Greenwood et al., 1996) was maintained in Ham's F-10 medium supplemented with 17.5% FCS, 7.5 μg/ml endothelial cell growth supplement, 80 μg/ml heparin, 2 mM glutamine, 0.5 μg/ml vitamin C, 100 U/ml penicillin and 100 μg/ml streptomycin.
Adhesion assays were carried out as previously described (Pryce et. al., 1994; Adamson et al., 1999). Briefly, peripheral lymph node-derived cells (PLNC) were isolated and T-lymphocytes obtained after purification on nylon wool columns. These cells which represent non-antigen activated T-lymphocytes are therefore non-migratory but highly adhesive when activated with the mitogen concanavalin A (Pryce et al., 1994, Greenwood and Calder 1993; Male et al., 1994 ). PLNC were activated for 24 h with type V concanavalin A, washed twice in HBSS, and cells labelled with 3 μCi [^3H]-deoxy glucose per 10^6 cells in HBSS for 90 min at 37° C. After washing the cells three times with HBSS they were resuspended in RPMI 1640 medium containing 10% FCS. Endothelial monolayers grown on 96 well plates were prepared by removing the culture medium and washing the cells four times with HBSS. 200 μl of [^3H]-labelled PLNC at a concentration of 1×10^6/ml were then added to each well and incubated at 37° C. for 1.5 h. In each assay, β-emissions from each of 6 replicate blank wells were determined to provide a value for the total amount of radioactivity added per well and to allow calculation of the specific activity of the cells. After incubation, non-adherent cells were removed with four separate washes from the four poles of the well with 37° C. HBSS as previously described (Pryce et al, 1994: Adamson et al., 1999). Adherent PLNC were lysed with 2% SDS, the lysate removed, scintillant added and radioactivity quantitated by spectrometry. Results are expressed as the means±SEM between groups determined by Student's t-test.

[1] = system: brain endothelial cell monolayers (GP8/3.9); assay: T-lymphocyte transendothelial migration through brain endothelial cell monolayers; type: cell-based, rat
Experimental: as §1
Lewis rat T-lymphocyte cell lines specific for purified myelin basic protein were prepared as previously described (Pryce et al, 1997). Briefly, lymph nodes were collected from bovine MBP-immunised rats and the T-lymphocytes propagated by periodically alternating antigen activation with IL-2 stimulation. The cell lines express the marker of the CD4^+ T cell subset, are CD45RC^low and recognise MBP in the molecular context of MHC class II determinants (Pryce et al, 1997).
The ability of the immortalised cells to support the transendothelial migration of antigen specific T-lymphocytes was determined using a well-characterised assay as described extensively elsewhere (Adamson et al., 1999 and http://www.ucl.ac.uk/ioo/video/ sequence.avi) Briefly, T-lymphocytes were added (2×10^5 cells/well) to 24 well plates containing endothelial cell monolayers. Lymphocytes were allowed to settle and migrate over a 4 h period. To evaluate the level of migration co-cultures were placed on the stage of a phase-contrast inverted microscope housed in a temperature controlled (37° C.), 5% CO2 gassed chamber (Zeiss, Herts, U.K.). A 200×200 μm field was randomly chosen and recorded for 10 min spanning the 4 h time point using a camera linked to a time-lapse video recorder. Recordings were replayed at 160× normal speed and lymphocytes identified and counted which had either adhered to the surface of the monolayer or that had migrated through the monolayer. Lymphocytes on the surface of the monolayer were identified by their highly refractive morphology (phase-bright) and rounded or partially spread appearance. In contrast cells that had migrated through the monolayer were phase-dark, highly attenuated and were seen to probe under the endothelial cells in a distinctive manner (Pryce et al, 1997; Adamson et al, 1999: Etienne et al, 2000). All other data were expressed as a percentage of the control migrations. A minimum of three independent experiments using a minimum of 6 wells per assay were performed. The results are expressed as the means±SEM and significant differences between groups determined by Student±s t-test.

[2] = mice, daily injections of 25 mg/kg i.p.; cited from earlier work
Rho protein = Rho protein association with brain endothelial cell membranes (Western blot); type: cell-based, rat; conditions: C3-transferase treatment of brain endothelial cells
Experimental: as §1
Ice-cold lysis buffer containing 10 mM Tris-HCl pH7.5, 5 mM MgCl2, 1 mM DTT and 1 mM PMSF was added to cells and incubated on ice for 10 min. Cells were subsequently homogenised and centrifuged at 5000 g for 10 min to remove nuclei. Supernatants were then centrifuged at 100,000 g in a Beckman Ultracentrifuge for 30 min to obtain crude membranes. Membrane pellets were washed with buffer containing 50 mM Tris-HCl pH7.5, 50 mM NaCl, 5 mM MgCl2, 1 mM DTT and 1 mM PMSF and re-centrifuged at 100,000 g for 30 min. Membrane pellets were then resuspended in sample buffer and proteins resolved on 12.5% SDS-PAGE gels. Proteins were electroblotted on nitrocellulose membranes and immunblotted with anti-Rho polyclonal antibody (Santa Cruz, Wilts, UK). Rho proteins within membrane fractions were visualised following incubation with a 1:15,000 dilution of goat anti-rabbit-HRP (Pierce, Chester, UK) and ECL development (Amersham, Bucks,UK).
Isoprenylation of Rho proteins are essential for their efficient association with cell membranes (Adamson et al, 1992).

[3] = 24 h treatment plus 90 min adhesion assay
[4] = 48 h treatment plus 90 min adhesion assay
[5] = 10 μM, brain EC treated 24 h prior to and during 4 h co-culture, mean±SEM
[6] = 10 μM, brain EC treated 48 h prior to and during 4 h co-culture, mean±SEM

| Compound | T-lymphocyte adhesion to brain endothelial cells (brain endothelial cells; [3]) | T-lymphocyte adhesion to brain endothelial cells (brain endothelial cells; [4]) | transendothelial lymphocyte migration [1, 5] | transendothelial lymphocyte migration [1, 6] | time required to obtain steady state plasma concentrations [2] [days] | transendothelial lymphocyte migration ([1]; C3 transferase treatment of brain EC, n=12) | subcellular distribution of Rho proteins (Rho protein) |
| --- | --- | --- | --- | --- | --- | --- | --- |
| COC(=O)[C@H](CC(C)C)NC(=O)c1ccc(NC[C@@H](N)CS)cc1-c1cccc2ccccc12 [GGTI-298] | did not have any significant effect | did not have any significant effect | 73.5±6.0 % of control migration | 51.6±3.1 % of control migration |  |  |  |
| COC(=O)[C@H](CCSC)NC(=O)c1ccc(NC[C@@H](N)CS)cc1-c1ccccc1 [FTI-277] | did not have any significant effect | did not have any significant effect | did not result in a significant alteration | 77.7±4.9 % of control migration | 3 |  |  |
| C3 transferase |  |  |  |  |  | 18.4±4.1 % of control values | did not affect |
